Measured values reported in US8901035B2, “Herbicidal compositions comprising 4-amino-3-chloro-5-fluoro-6-(4-chloro-2-fluoro-3-methoxyphenyl) pyridine-2-carboxylic acid or a derivative thereof and cellulose biosynthesis inhibitor herbicides” (Dow AgroSciences LLC, priority 2012, dated 2014).

Key:
Type in all cases: in vivo
[1] = system: Brachiaria platyphylla (Griseb.) Nash or Urochloa platyphylla (Nash) R.D. Webster (BRAPP); experiment: Postemergence foliar-applied herbicidal mixtures, weed control in direct seeded rice (greenhouse)
Excerpt: (§1) Seeds or nutlets of the desired test plant species were planted in a soil matrix prepared by mixing a loam or sandy loam soil (e.g., 28.6 percent silt, 18.8 percent clay, and 52.6 percent sand, with a pH of about 5.8 and an organic matter content of about 1.8 percent) and calcareous grit in an 80 to 20 ratio. The soil matrix was contained in plastic pots with a volume of 1 quart and a surface area of 83.6 square centimeters (cm^2). When required to ensure good germination and healthy plants, a fungicide treatment and/or other chemical or physical treatment was applied. The plants were grown for 8-22 days in a greenhouse with an approximate 14 h photoperiod which was maintained at about 29° C. during the day and 26° C. during the night. Nutrients (Peters Excel® 15-5-15 5-Ca 2-Mg and iron chelate) were applied in the irrigation solution as needed and water was added on a regular basis. Supplemental lighting was provided with overhead metal halide 1000-Watt lamps as necessary. The plants were employed for testing when they reached the first through fourth true leaf stage.
(§2) Treatments consisted of the acid or esters of 4-amino-3-chloro-5-fluoro-6-(4-chloro-2-fluoro-3-methoxy-phenyl) pyridine-2-carboxylic acid (Compound A), each formulated as an SC (suspension concentrate), and various herbicidal components alone and in combination. Forms of compound A were applied on an acid equivalent basis.
(§3) Other herbicidal components were applied on an active ingredient basis and included cellulose biosynthesis-inhibiting (CBI) herbicides isoxaben formulated as Gallery® 75DF and indaziflam formulated as Specticle® 20WSP.
(§4) Treatment requirements were calculated based upon the rates being tested, the concentration of active ingredient or acid equivalent in the formulation, and a 12 mL application volume at a rate of 187 L/ha.
(§5) For treatments comprised of formulated compounds, measured amounts of compounds were placed individually in 25 mL glass vials and diluted in a volume of 1.25% (v/v) Agri-Dex® crop oil concentrated to obtain 12× stock solutions. […] Application solutions were prepared by adding an appropriate amount of each stock solution (e.g., 1 mL) and diluted to the appropriate final concentrations with the addition of 10 mL of an aqueous mixture of 1.25% (v/v) crop oil concentrate so that the final spray solutions contained 1.25+/−0.05% (v/v) crop oil concentrate.
(§6) All stock solutions and applications solutions were visually inspected for compound compatibility prior to application. Spray solutions were applied to the plant material with an overhead Mandel track sprayer equipped with a 8002E nozzles calibrated to deliver 187 L/ha over an application area of 0.503 m^2 at a spray height of 18 to 20 inches (46 to 50 cm) above average plant canopy height. Control plants were sprayed in the same manner with the solvent blank.
(§7) The treated plants and control plants were placed in a greenhouse as described above and watered by sub-irrigation to prevent wash-off of the test compounds. After approximately 3 weeks, the condition of the test plants as compared with that of the untreated plants was determined visually and scored on a scale of 0 to 100 percent where 0 corresponds to no injury or growth inhibition and 100 corresponds to complete kill.
(§8) Colby's equation was used to determine the herbicidal effects expected from the mixtures (Colby, S. R. 1967. Calculation of the synergistic and antagonistic response of herbicide combinations. Weeds 15:20-22).
(§9) The following equation was used to calculate the expected activity of mixtures containing two active ingredients, A and B: Expected=A+B−(A×B/100)
(§10) A=observed efficacy of active ingredient A at the same concentration as used in the mixture.
(§11) B=observed efficacy of active ingredient B at the same concentration as used in the mixture.

[2] = system: Digitaria sanguinalis (L.) Scop. (DIGSA); experiment: as above
Excerpt: as §1, §2, §3, §4, §5, §6, §7, §8, §9, §10, §11

[3] = system: Leptochloa chinensis (L.) Nees (LEFCH); experiment: as above
Excerpt: as §1, §2, §3, §4, §5, §6, §7, §8, §9, §10, §11

[4] = system: Ipomoea hederacea (L.) Jacq. (IPOHE); experiment: Pre-emergence soil-applied herbicidal mixtures for weed control (greenhouse)
Excerpt: (§12) Seeds or nutlets of the desired test plant species were planted in a soil matrix prepared by mixing a loam soil (e.g., 32 percent silt, 23 percent clay, and 45 percent sand, with a pH of about 6.5 and an organic matter content of about 1.9 percent) and calcareous grit in an 80 to 20 ratio. The soil matrix was contained in plastic pots with a volume of 1 quart and a surface area of 83.6 square centimeters (cm^2).
(§13) Treatments consisted of the benzyl ester of 4-amino-3-chloro-5-fluoro-6-(4-chloro-2-fluoro-3-methoxy-phenyl)pyridine-2-carboxylic acid (compound A) formulated as an SC (suspension concentrate) and various herbicidal components alone and in combination. Forms of compound A were applied on an acid equivalent basis.
(§14) Other herbicidal components were applied on an acid equivalent or active ingredient basis and included the cellulose biosynthesis inhibiting herbicides, isoxaben formulated as Gallery® 75DF and indaziflam formulated as Specticle® 20WSP.
as §4
(§15) For treatments comprised of formulated compounds, measured amounts of compounds were placed individually in 25 mL glass vials and diluted in a volume of 1.25% (v/v) Agri-Dex® crop oil concentrate (COC) to obtain 12× stock solutions. […] Application solutions were prepared by adding an appropriate amount of each stock solution (e.g., 1 mL) and diluted to the appropriate final concentrations with the addition of 10 mL of an aqueous mixture of 1.25% (v/v) COC so that the final spray solutions contained 1.25% (v/v) COC.
(§16) All stock solutions and applications solutions were visually inspected for compound compatibility prior to application. Spray solutions were applied to the soil with an overhead Mandel track sprayer equipped with a 8002E nozzles calibrated to deliver 187 L/ha over an application area of 0.503 m^2 at a spray height of 18 inches (46 cm) above average pot height. Control pots were sprayed in the same manner with the solvent blank.
(§17) The treated and control pots were placed in a greenhouse and top watered as needed. When required to ensure good germination and healthy plants, a fungicide treatment and/or other chemical or physical treatment was applied. The pots were maintained in a greenhouse with an approximate 14 hr. photoperiod which was maintained at about 29° C. during the day and 26° C. during the night. Nutrients (Peters® Excel 15-5-15 5-Ca 2-Mg) were applied in the irrigation solution as needed and water was added on a regular basis. Supplemental lighting was provided with overhead metal halide 1000-Watt lamps as necessary. After approximately 4 weeks, the condition of the test plants as compared with that of the untreated plants was determined visually and scored on a scale of 0 to 100 percent where 0 corresponds to no injury or growth inhibition and 100 corresponds to complete kill.
as §8, §9, §10, §11

[5] = system: Setaria faberi Herrm. (SETFA); experiment: as above; details: Indaziflam 95 g ai/ha alone
Excerpt: as §12, §13, §14, §4, §15, §16, §17, §8, §9, §10, §11

[6] = system: Xanthium strumarium L. (XANST); experiment: as above
Excerpt: as §12, §13, §14, §4, §15, §16, §17, §8, §9, §10, §11

[7] = Compound A Acid 4.38 g ae/ha alone
[8] = Compound A Acid 5.3 g ae/ha alone
[9] = Compound A Acid 8.75 g ae/ha alone
[10] = Compound A Acid 10.6 g ae/ha alone

For `COc1c(Cl)ccc(-c2nc(C(=O)O)c(Cl)c(N)c2F)c1F` [Compound A Acid, 4-amino-3-chloro-6-(4-chloro-2-fluoro-3-methoxyphenyl)-5-fluoropyridine-2-carboxylic acid], the “Visual Weed Control (%) - 20 DAA Obs” value [1, 7] was 75%, the “Visual Weed Control (%) - 21 DAA Obs” value [1, 8] was 60% and the “Visual Weed Control (%) - 20 DAA Obs” value [1, 9] was 80%. The “Visual Weed Control (%) - 21 DAA Obs” value [1, 10] was 85%, the “Visual Weed Control (%) - 21 DAA Obs” value [2, 8] was 20% and the “Visual Weed Control (%) - 20 DAA Obs” value [2, 9] was 45%. For the same compound, the “Visual Weed Control (%) - 21 DAA Obs” value [2, 10] was 30%, the “Visual Weed Control (%) - 20 DAA Obs” value ([2]; Compound A Acid 17.5 g ae/ha alone) was 50% and the “Visual Weed Control (%) - 21 DAA Obs” value ([2]; Compound A Acid 21.2 g ae/ha alone) was 35%. The “Visual Weed Control (%) - 20 DAA Obs” value [3, 7] was 15%.

For `Cc1ccc2c(c1)[C@H](Nc1nc(N)nc(C(C)F)n1)[C@@H](C)C2` (stereo partly drawn) [Indaziflam, N-[(1R,2S)-2,3-dihydro-2,6-dimethyl-1H-inden-1-yl]-6-(1-fluoroethyl)-1,3,5-triazine-2,4-diamine, reference compound], the “Visual Weed Control (%) - 21 DAA Obs” value ([1]; Indaziflam 21 g ai/ha alone) was 0%, the “Visual Weed Control (%) - 21 DAA Obs” value ([1]; Indaziflam 42 g ai/ha alone) was 15% and the “Visual Weed Control (%) - 21 DAA Obs” value ([2]; Indaziflam 21 g ai/ha alone) was 50%. For the same compound, the “Visual Weed Control (%) - 21 DAA Obs” value ([2]; Indaziflam 42 g ai/ha alone) was 45%, the “Visual Weed Control (%) - 21 DAA Obs” value ([3]; Indaziflam 42 g ai/ha alone) was 70% and the “Visual Weed Control (%) - 28 DAA IPOHE Obs” value ([4]; Indaziflam 17.5 g ai/ha alone) was 40%. The “Visual Weed Control (%) - 28 DAA IPOHE Obs” value ([4]; Indaziflam 70 g ai/ha alone) was 40%, the “Visual Weed Control (%) - 27 DAA SETFA Obs” value [5] was 70% and the “Visual Weed Control (%) - 28 DAA XANST Obs” value ([6]; Indaziflam 17.5 g ai/ha alone) was 25%. The “Visual Weed Control (%) - 28 DAA XANST Obs” value ([6]; Indaziflam 70 g ai/ha alone) was 45%.
